Results on two molecules are retold here after US11434490B2, “Fluorogen-binding RNA aptamers” (CENTRE NATIONAL DE LA RECHERCHE SCIENTIFIQUE, priority 2017, dated 2022).

The nature of data set [1]: Temperature dependent fluorescence and UV melting. It is filed as physicochemical. The procedure: FIG. 11|Temperature-dependent fluorescent and UV absorbance spectroscopy of new Mango variants. Line plots of temperature-dependent spectroscopy for Mango I (data obtained from previous work)^1, Mango II, Mango III, and Mango IV. […] Starting at 90° C., temperature was ramped down at a rate of 1° C./min to 20° C. (darker shade) and returned to 90° C. at a rate of 1° C./min (lighter shade).
Temperature dependence measurements were started at 90° C. decreasing at a rate of 1° C./min until 20° C., then returned at 1° C./min until 90° C. was reached. […] Temperature dependence of fluorescence and absorbance were measured using a Varian Cary Eclipse Fluorescence Spectrophotometer at excitation and emission peaks and a Varian Cary 100 Bio UV-visible spectrophotometer monitoring at 260 nm.

Data set [2] in a line: Fluorescence lifetime measurements (TCSPC). The class given is physicochemical. The settings on record: for α1 (%): amplitude of τ1; for α2 (%): amplitude of τ2; for τi (ns), intensity-weighted average lifetime / τa (ns), amplitude-weighted average lifetime: calculated from the components; for τ1 (ns) / τ2 (ns): free TO1-Biotin or RNA bound to TO1-Biotin. The protocol:
Fluorophore lifetime measurements were performed by using an in-house modified 2-photon fluorescence microscope based on a Zeiss LSM 510 unit capable of Time-Correlated Single-Photon Counting (TCSPC) measurements. A diode-pumped solid state laser (Millenia Prime, Spectra Physics, Newport, Calif.) was used to pump a Ti:Sapphire Tsunami oscillator (Model 3960C, Spectra Physics, Newport, Calif.), operating in femtosecond mode, at a repetition rate of 80 MHz, and tunable in the near infrared region. The output beam of the Ti:Sapphire laser was directed into an acousto-opto modulator (MT110/B50/A1.5 IR/S, AA Optoelectronic, France), controlled through the Zeiss LSM electronics and software, to attenuate the power before steering it into the LSM unit. The beam was reflected onto a 700/488 dichroic mirror and directed into the back aperture of a Plan Apochromat 63×, NA 1.4, oil immersion objective, and expanded to fill the back pupil. The fluorescence from the sample was collected from the same objective, intercepted by a 733LP dichroic mirror, sent toward the back port of the microscope, filtered through an ET700SP-2P filter (Chroma Technologies, Bellows Falls, Vt.) to remove residual scattering from the laser, and further passed through a 540/50 nm bandpass filter (Semrock, Rochester, N.Y.). The fluorescence is finally focused onto the photocathode of a H7422P-40 GaAsP photomultiplier detector (Hamamatsu, Japan). The large NA of the objective contributes to a certain degree of depolarization of the incoming excitation beam, as well as of the detected fluorescence. According to Fisz (J. Chem. Phys. A, 2007 and 2009), this would allow one to omit an analyzer (polarizer) in front of our detector, because magic angle conditions are achieved by using a 45° angle detection (i.e. unpolarized) configuration. The signal from the detector and the synchronization signal from the laser are directed into an SPC150 photon counting card (Becker & Hickl, Germany), controlled by the SPCM64 proprietary software from the manufacturer (Becker & Hickl, Germany). The data were collected with a 12.5 ns time window in TCSPC histogramming mode with 1024 channels, with a width of 12.2 ps each.
For the experiments the laser was tuned at 780 nm, and the power adjusted to 18 mW before the objective lens. RNA samples were diluted to a concentration of ˜3-5 μM in buffer. TO-1B was measured at a concentration of 50 μM due to low fluorescence signal of the compound, compared to the RNA-bound version. An 80 μl droplet was deposited onto a #1.5 coverslip, previously treated with BSA to avoid nonspecific binding of RNA to the glass, and covered to avoid evaporation. The excitation was focused ˜5 μm above the upper surface of the coverslip to reduce scatter and to avoid collecting signal from molecules immobilized on the glass surface. The beam was kept stationary by using the LSM controller to simply open the excitation shutter, and data were collected until the maximum count in the peak channel of the TCSPC histogram reached 10^4 photons. Experiments were repeated in triplicate. An instrument response function (IRF) was collected on every day of measurement by recording the second harmonic generation (SHG) signal from crushed urea crystals deposited onto a glass coverslip, in this case the bandpass filter before the detector was substituted with a 440 nm short pass filter to collect the 390 nm SHG. The data collected with the SPCM64 software were stored as *.sdt files for subsequent analysis.
Data were analyzed using the SPCImage software (Becker & Hickl, Germany). The fluorescence decay curves were fit using exponential functions of the form:
Where n is at most equal to 3 in our software. The data fitting routine uses a least-square algorithm where the exponential function is first reconvoluted with the measured IRF and then fit to the data. The shift of the IRF for each dataset, as well as a scatter contribution were included as free parameters during fitting. […]

The nature of data set [3]: Salt dependence of Mango/TO1-Biotin fluorescence: Mg2+ titration. The settings on record: in the presence of potassium; Mg2+ 256 mM. The protocol: (§1) FIG. 10|Salt dependence of new Mango variants. Dependence of fluorescence of each Mango for (a) K^+, (b) Na^+ in place of K^+, and (c) Mg^2+ ions in a buffer containing 140 mM K^+. […] 10 mM Tris buffer (pH 7.2) was used in place of phosphate of the WB buffer to avoid monovalent counter ions. Color-coding is as follows: Black—Mango I, Blue—Mango II, Green—Mango III, Orange—Mango IV. Hill coefficients are fitted to dark points. Points in lighter shade have been excluded from the fit. Error bars are standard deviations of three replicates.

A short description of data set [4]: Salt dependence of Mango/TO1-Biotin fluorescence: Na+ in place of K+. The class given is binding. The procedure: as §1

Regarding “Mango-II: minimal construct engineered from isolate R2-1; SEQ ID NO: 6902 GCGUACGAAGGAGAGGAGAGGAAGAGGAGAGUACGC (chemistry not given here)”, the thermostability result in data set [1] is listed as “more thermostable than Mango-I”. Also, in data set [2], the “α1 (%)” value is reported as 45%; the “α2 (%)” value turned out to be 55%; the “τi (ns), intensity-weighted average lifetime” value is given as 2.05 ns. In addition, in data set [2] (listed as Mango II wt), the “τa (ns), amplitude-weighted average lifetime” value (“τa (ns)” below) is recorded as 1.51 ns; the “τ1 (ns)” value is recorded as 0.52 ns; the “τ2 (ns)” value is 2.33 ns. For the same molecule, in data set [2] (listed as wild-type Mango-II), the “τa (ns)” value is 1.51 (±0.06) ns; the “τ1 (ns)” value was 0.52 (±0.02) ns; the “τ2 (ns)” value is 2.33 (±0.12) ns. In addition, the “effect of high levels of Mg^2+ on fluorescence” value in data set [3] was “significantly resistant”. Further, the “fluorescence in the presence of sodium ions” value in data set [4] is reported as “did not fluoresce appreciably”. Further, the “Hill Coefficients Na^+” value in data set [4] (Na+ in place of K+, 25 nM RNA, 50 nM TO1-Biotin) is listed as 0.8 ± 0.1.

B1: Mango II - A22U: Mango-II point mutant; SEQ ID NO: 6903 / 6905 (nucleic acid)
chain 1: GCGUACGAAGGAGAGGAGAGGUAGAGGAGAGUACGC
chain 2: GGCACGUACGAAGGAGAGGAGAGGUAGAGGAGAGUACGUGC
modifications: chemistry not given here
For B1, in data set [2], the “α1 (%)” value came to 45%; the “α2 (%)” value was 55%; the “τa (ns)” value is on record as 1.92 ns; the “τi (ns), intensity-weighted average lifetime” value is given as 2.53 ns. In addition, in data set [2], the “τ1 (ns)” value was 0.72 ns and the “τ2 (ns)” value turned out to be 2.904 ns. Moreover, in data set [2] (listed as A22U mutant), the “τa (ns)” value is recorded as 1.92 (±0.03) ns; the “τ1 (ns)” value was 0.72 (±0.01) ns; the “τ2 (ns)” value is given as 2.904 (±0.001) ns.
